The values below come from patent publication US6399625B1, “1-oxorapamycins” (Wyeth, priority 2000, dated 2002).

What all share (format): cell-based
Test [1] concerns C. parapsilosis GC 3075. Nature of the test: Antifungal activity, microtiter broth dilution MIC. The settings on record: Lodderomyces parapsilosis, GC3075, RPMI 1640, 35° C., 24-48 hours. The procedure: (§1) The antifungal activity for the 1-oxorapamycins of this invention was confirmed in a standard pharmacological test procedure which measured the ability of the compound being evaluated to inhibit fungal growth. 1-Oxorapamycin (Compound I), 1-oxorapamycin 42-ester with 3-hydroxy-2-(hydroxymethyl)-2-methylpropionic acid (Compound II), and 42-O-(2-hydroxy)ethyl 1-oxorapamycin (Compound III) were evaluated as representative compounds of this invention. The procedure used and results obtained are briefly described below. A 96 U-bottom microtiter plate was filled (50 μl/well) with RPMI 1640. The compounds to be evaluated were placed in appropriate wells, and serial diluted in successive wells to provide 11 dilutions. The concentrations ranged from 64 through 0.06 μg/ml. An adjusted inoculum of fungi (50 μl) was added to each well and the plates were incubated at 35° C. for 24-48 hours. […] Nystatin and rapamycin were used for the purpose of comparison.

In test [2] the test system is C. tropicalis GC 3080. Nature of the test: Antifungal activity, microtiter broth dilution MIC. The settings on record: Candida tropicalis, GC3080, RPMI 1640, 35° C., 24-48 hours. The procedure:
as §1

The subject of test [3] is C. albicans GC 3065. Nature of the test: Antifungal activity, microtiter broth dilution MIC. The settings on record: Candida albicans, GC3065, RPMI 1640, 35° C., 24-48 hours. How it is done: as §1
Test [4] deals with A. niger GC 6591. Nature of the test: Antifungal activity, microtiter broth dilution MIC. The settings on record: Aspergillus niger, GC6591, RPMI 1640, 35° C., 24-48 hours. The procedure:
as §1

The test system of test [5] is C. lusitaniae GC 3068. Put plainly: Antifungal activity, microtiter broth dilution MIC. The settings on record: Clavispora lusitaniae, RPMI 1640, 35° C., 24-48 hours. How it is done:
as §1

Test [6] deals with C. albicans GC 3064. Nature of the test: Antifungal activity, microtiter broth dilution MIC. The settings on record: Candida albicans, GC3064, RPMI 1640, 35° C., 24-48 hours. How it is done:
as §1

For test [7], the system named is A. fumigatus GC 3092. Nature of the test: Antifungal activity, microtiter broth dilution MIC. The settings on record: Aspergillus fumigatus, GC3092, read-out: ANTIFUNGAL ACTIVITY (MIC). How it is done:
as §1

For test [8], the system named is C. tropicalis GC 3081. Put plainly: Antifungal activity, microtiter broth dilution MIC. The settings on record: Candida tropicalis, GC3081, RPMI 1640, 35° C., 24-48 hours. The procedure:
as §1

Test [9] relates to A. niger GC 3091. Put plainly: Antifungal activity, microtiter broth dilution MIC. The settings on record: Aspergillus niger, GC3091, RPMI 1640, 35° C., 24-48 hours. How it is done: as §1
In test [10] the test system is C. krussii GC 3067. Nature of the test: Antifungal activity, microtiter broth dilution MIC. The settings on record: RPMI 1640, 35° C., 24-48 hours. The procedure:
as §1

Test [11] concerns C. pseudotropicalis 3070. Nature of the test: Antifungal activity, microtiter broth dilution MIC. The settings on record: Kluyveromyces marxianus, RPMI 1640, 35° C., 24-48 hours. How it is done: as §1
For test [12], the system named is C. albicans GC 3066. Put plainly: Antifungal activity, microtiter broth dilution MIC. The settings on record: Candida albicans, GC3066, RPMI 1640, 35° C., 24-48 hours. How it is done:
as §1

Test [13] deals with C. parapsilosis GC 3074. Put plainly: Antifungal activity, microtiter broth dilution MIC. The settings on record: Lodderomyces parapsilosis, GC3074, RPMI 1640, 35° C., 24-48 hours. The procedure: as §1
Test [14] deals with C. parapsilosis GC 3076. Put plainly: Antifungal activity, microtiter broth dilution MIC. The settings on record: Lodderomyces parapsilosis, GC3076, RPMI 1640, 35° C., 24-48 hours. The procedure:
as §1

Test [15] deals with SH-SY5Y cells. Nature of the test: Neuroregeneration activity, neurite outgrowth. The settings on record: aphidicolin pretreated, NGF plus test compound, mean ± SEM. The text has this:
The neuroregeneration activity for the compounds of this invention was confirmed in a standard pharmacological test procedure by evaluating 1-oxo-rapamycin (Compound I) as representative compound of this invention, against SH-SY5Y cells in vitro [Gold et al., Exp Neurol 147: 269-278, 1997]. Briefly, SH-SY5Y cells were placed in 6-well plate treated with aphidicolin for 5 days followed by the test compounds using 6-well plates. For controls, wells were untreated, or treated with nerve growth factor (NGF) alone. Test wells were treated with NGF plus compound I or rapamycin. Cells were photographed at 168 hours. Analysis of neuritic lengths was performed on photographic prints using a Houston Instrument HI-PAD digitizing tablet connected to an IBM XT computer with appropriate software (Bioquant IV, R&M Biometrics, Nashville, Tenn.). Mean values for axonal areas were compared using by ANOVA (STATVIEW, Abacus Concepts, Inc., Berkeley, Calif. The following table summarizes the results that were obtained.

In test [16] the test system is SW620 (colon) tumor cell line. Put plainly: Antineoplastic activity, tumor cell growth inhibition (sulforhodamine B). The settings on record: Homo sapiens, SW-620, SW620 cells, 48 hours. From the text: (§2) Antineoplastic activity for the compounds of this invention was confirmed by evaluating the antineoplastic activity of representative compounds of this invention (Compounds I-III) against six tumor cell lines in vitro. Briefly, tumor cells from six cell lines were placed in wells of a 96 well microtiter plate. The following tumor cell lines were used: 3T3 (ovarian), 3T3/H2N (ovarian—resistant to cis-platin), A431 (vulva epidermoid origin), SW620 (colon), SKBR3 (breast), and MDA-435 (breast). The tumors cells were grown in the presence of serial dilutions of the compound to be evaluated for 48 hours, and cell growth determined using a colorimetric procedure (sulforhrodamine B). The inhibition of growth was calculated compared to the number of cells at the time of test compound addition. Results are expressed as an IC50 (μg/ml); N/A indicates the compound was not evaluated against that cell line. The following IC50s was listed on Table 2.

The test system of test [17] is MDA-435 (breast) tumor cell line. The description is as above. The settings on record: MDA435 cells, 48 hours.
Source text: as §2

Test [18] concerns 3T3 (ovarian) tumor cell line. The test is described as above. The settings on record: Mus musculus, NIH3T3, 3T3 cells, 48 hours.
Source text: as §2

Test [19] has as its system 3T3/H2N (ovarian—resistant to cis-platin) tumor cell line. Described as above. The settings on record: 3T3/H2N cells, 48 hours.
Source text: as §2

In test [20] the test system is A431 (vulva epidermoid origin) tumor cell line. The test is described as above. The settings on record: Homo sapiens, A-431, A431 cells, 48 hours.
Source text: as §2

Test [21] has as its system SKBR3 (breast) tumor cell line. The description is as above. The settings on record: Homo sapiens, SK-BR-3, SKBR3 cells, 48 hours.
Source text: as §2

Values after ≈ are worked out from the molar mass of the structure shown. Read-outs that look alike come from different tables or passages of the source.

In the case of `CO[C@H]1C[C@@H]2CC[C@@H](C)[C@@](O)(O2)C(=O)C(=O)N2CCCC[C@H]2C(=O)O[C@H]([C@H](C)C[C@@H]2CC[C@@H](O)[C@H](OC)C2)CC(=O)[C@H](C)/C=C(\C)[C@@H](O)[C@@H](OC)C(=O)[C@H](C)C[C@H](C)/C=C/C=C/C=C/1C` [Rapamycin], the MIC in [1] is under 0.12 µg/mL; in test [2], 0.25 µg/mL (≈ 0.273 µM); in [3] it was 0.5 µg/mL (≈ 0.547 µM); in test [4], over 128 µg/mL; in [5] (GC3068, C. lusitaniae GC 3068, first listing (r26), read-out: ANTIFUNGAL ACTIVITY (MIC)), under 0.12 µg/mL; in test [5] (GC3068, read-out: ANTIFUNGAL ACTIVITY (MIC), C. lusitaniae GC 3068, second listing (r28)), 0.5 µg/mL (≈ 0.547 µM). For the same compound, the MIC was under 0.12 µg/mL in test [6]; over 128 µg/mL in test [7]; 0.25 µg/mL (≈ 0.273 µM) in test [8]; over 128 µg/mL in [9]; 4 µg/mL (≈ 4.38 µM) in test [10]; under 0.12 µg/mL in test [11]. Besides, the MIC was under 0.12 µg/mL in test [12], 0.25 µg/mL (≈ 0.273 µM) in test [13] and under 0.12 µg/mL in test [14]. The “Mean Neurite Lengths after 168 h, Neurite Length” value in test [15] worked out at 261.4 ± 13.1 μm. Moreover, the IC50 in test [16] was found to be 2.3 µg/mL (≈ 2.52 µM); in test [17], 1.3 µg/mL (≈ 1.42 µM); in test [18] it was 0.48 µg/mL (≈ 0.525 µM); in test [19], 1.7 µg/mL (≈ 1.86 µM); in test [20] it was 1.9 µg/mL (≈ 2.08 µM); in test [21], 0.87 µg/mL (≈ 0.952 µM).
